Read-outs that look alike come from different tables or passages of the source.
Key:
CUMS model mice [1] = experiment: Sucrose preference test (SPT) in CUMS depression model; details: 15 mg/kg i.p. for 1 week, versus CUMS model, Fig. 6C
CUMS model mice [2] = experiment: Open-field test (OFT) in CUMS depression model; details: 15 mg/kg i.p. for 1 week; for OFT time spent in the center / OFT total distance traveled: CUMS mice, regardless of 5-HT1AR knockdown, Fig. 6D
5-HT2A receptor = target: T1, 5-HT2A receptor (Homo sapiens, UniProt P28223); experiment: cell-based; format: cell-based
T1 construct: expressed in transfected cells; host or cells: HEK 293T
Excerpt: We evaluated the impact of bufotenine derivatives on 6 serotonin receptor subtypes associated with depression (5-HT1A, 5-HT1B, 5-HT1D, 5-HT2A, 5-HT2C, and 5-HT7) using the GloSensor cAMP assay to measure Gi and Gs activation and the IP-One assay to assess Gq activation, thereby detecting signaling activity at each receptor. […] We conducted a thorough pharmacological analysis of bufotenine derivatives to evaluate their hallucinogenic potential via 5-HT2AR activation, comparing their receptor binding profiles and functional activities at 5-HT1AR and 5-HT2AR subtypes.
The downstream Gαq signaling of 5-HT2A was evaluated using the IP-One HTRF assay (Cisbio). HEK 293T cells were cultured in DMEM with 10% FBS and 1% penicillin–streptomycin at 37 °C, 5% CO2. After 24 h of transfection, cells were resuspended in stimulation buffer (8 × 10^5 cells/ml) and plated at 7 μl/well into 384-well plates. Ligands diluted in buffer (7 μl) were added and incubated for 1 h at 37 °C. IP-One-d2 and anti-IP-One cryptate (3 μl each) were then added, followed by 30-min incubation at room temperature. HTRF signals were measured using an EnVision reader (PerkinElmer).
(§3) An evaluation of the concentration–response curves was carried out using a logistic equation with 3 parameters. Calculations of pEC50 values were performed with the use of the sigmoid 3-parameter equation. In order to assess the significance, a 1-way or 2-way analysis of variance was conducted, followed by Bonferroni’s or Dunnett’s post hoc test. Differences were considered significant when P < 0.05 and are shown as *P < 0.05, **P < 0.01, or ***P < 0.001.

5-HT1A receptor = target: T2, 5-HT1A receptor (Homo sapiens, UniProt P08908); experiment: GloSensor cAMP assay, 5-HT1A Gi signaling in HEK 293T cells; format: cell-based
T2 sequence (P08908 1-422): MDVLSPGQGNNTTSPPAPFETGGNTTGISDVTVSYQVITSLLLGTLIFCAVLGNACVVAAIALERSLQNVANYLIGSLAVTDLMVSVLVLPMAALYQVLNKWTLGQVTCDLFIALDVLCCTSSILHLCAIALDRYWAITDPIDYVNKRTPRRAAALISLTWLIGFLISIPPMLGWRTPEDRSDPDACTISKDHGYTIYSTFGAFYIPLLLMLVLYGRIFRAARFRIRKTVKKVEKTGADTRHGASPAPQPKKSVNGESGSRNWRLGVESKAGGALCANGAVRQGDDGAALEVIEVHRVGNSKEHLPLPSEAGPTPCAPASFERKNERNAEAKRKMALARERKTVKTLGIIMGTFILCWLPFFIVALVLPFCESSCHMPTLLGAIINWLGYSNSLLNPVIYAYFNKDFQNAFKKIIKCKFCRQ
Experimental: (§4) The downstream Gαi signaling of 5-HT1A was assessed using the GloSensor cAMP assay (Promega). HEK 293T cells were cultured in DMEM with 10% FBS and 1% penicillin–streptomycin at 37 °C and 5% CO2. Cells were transfected with 5-HT1A constructs and the GloSensor-22F biosensor at a 3:2 ratio. After 24 h, cells were resuspended in CO2-independent medium with 2% GloSensor reagent and plated at 3.5 × 10^5 cells/ml (20 μl/well) into 384-well plates. After 1-h incubation, forskolin (1 μM) and test ligands were added, and luminescence was immediately recorded using an EnVision plate reader (PerkinElmer).
as §3

[3] = tested on: PCPA-induced mouse model of depression and anxiety; experiment: Tail suspension test (TST) in PCPA model; format: in vivo, C57BL/6 male mice; details: for Immobility time in TST: PCPA model, 5-OH-DMT 15 mg/kg i.p. or WAY100635 1 mg/kg i.p. for 3 d, versus control or model group, Fig. 6F
Experimental: (§1) Mice in the control group were fed with saline solution containing 0.1% DMSO (vehicle) for 3 d. Mice that were injected subcutaneously with 150 mg/kg PCPA twice daily for 3 d developed symptoms of depression. […] For WAY100635 treatment, mice were injected intraperitoneally with 1 mg/kg WAY100635 for 3 d. […] Then, mice were tested for all behaviors.

[4] = tested on: PCPA-induced mouse model of depression and anxiety; experiment: Sucrose preference test (SPT) in PCPA model; format: in vivo, C57BL/6 male mice; details: for Sucrose preference: PCPA model, 5-OH-DMT 15 mg/kg i.p. or WAY100635 1 mg/kg i.p. for 3 d, versus control or model group, Fig. 6H
Experimental: as §1

5-HT1A A365^6.55F mutant = experiment: GloSensor cAMP assay on 5-HT1A mutant A365F; details: mutant versus WT 5-HT1A, fold less potent, Fig. S7E
Experimental: In order to examine the underlying mechanism of ligand selectivity, we introduced a mutation at position A365^6.55, replacing it with phenylalanine.
as §4
WT or mutant were transfected into HEK293T cells and Glosenser cAMP assay were measured to reflect the activity of 5-HT1AR. The response data was normalized by WT receptor within each individual experiment, with the basal activity for WT as 0, while the fitted Emax of WT as 100. Three independent experiments were conducted (n=3).

[5] = tested on: PCPA-induced mouse model of depression and anxiety; experiment: Forced swimming test (FST) in PCPA model; format: in vivo, C57BL/6 male mice; details: for Immobility time in FST: PCPA model, 5-OH-DMT 15 mg/kg i.p. or WAY100635 1 mg/kg i.p. for 3 d, versus control or model group, Fig. 6G
Experimental: as §1

[6] = tested on: PCPA-induced mouse model of depression and anxiety; experiment: Open-field test (OFT) in PCPA model; format: in vivo, C57BL/6 male mice; details: for OFT time spent in center / OFT total distance traveled: PCPA model, 5-OH-DMT 15 mg/kg i.p. or WAY100635 1 mg/kg i.p. for 3 d, versus control or PCPA mice, Fig. 6I
Experimental: as §1

mice [7] = experiment: Head-twitch response (HTR), side effect detection; format: in vivo, C57BL/6 male mice; details: 25 mg/kg i.p., recorded 10 min, in contrast to 5-MeO-DMT, Fig. S10
Experimental: (§2) Then, HTR and HLA were immediately tested. Mice were placed into the observation arena (25 × 25 × 40 cm) under low-light conditions. The number of head-twitch events and total distance were respectively recorded for 10 and 30 min. For the HTR test, the number of head twitches was examined by 2 observers blinded to the treatments via video recordings. For the HLA test, the total distance traveled was measured by using tracking software to process video recordings.

mice [8] = experiment: Horizontal locomotor activity (HLA), side effect detection; format: in vivo, C57BL/6 male mice; details: 25 mg/kg i.p., recorded 30 min, in contrast to 5-MeO-DMT, Fig. S10
Experimental: as §2

[9] = PCPA + 5-OH-DMT 15 mg/kg + WAY100635 1 mg/kg i.p. versus PCPA + 5-OH-DMT

T1 sequence (P28223 whole entry): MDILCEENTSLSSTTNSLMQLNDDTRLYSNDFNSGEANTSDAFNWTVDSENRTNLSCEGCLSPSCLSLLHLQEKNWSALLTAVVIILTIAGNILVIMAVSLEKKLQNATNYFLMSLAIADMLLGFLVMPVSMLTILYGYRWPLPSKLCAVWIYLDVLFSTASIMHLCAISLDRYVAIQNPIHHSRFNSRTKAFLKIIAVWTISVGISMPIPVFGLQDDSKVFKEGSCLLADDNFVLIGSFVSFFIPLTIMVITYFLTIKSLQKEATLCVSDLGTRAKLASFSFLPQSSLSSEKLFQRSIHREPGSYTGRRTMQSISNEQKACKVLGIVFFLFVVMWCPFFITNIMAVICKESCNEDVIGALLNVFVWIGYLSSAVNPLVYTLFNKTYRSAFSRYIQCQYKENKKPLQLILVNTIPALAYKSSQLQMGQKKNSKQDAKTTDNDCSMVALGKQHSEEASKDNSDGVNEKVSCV

| Structure (SMILES) | Sucrose preference (CUMS model mice [1]) | OFT time spent in the center (CUMS model mice [2]) | OFT total distance traveled (CUMS model mice [2]) | Immobility time in TST [3] | Sucrose preference [4] | Immobility time in FST [5] | OFT time spent in center [6] | OFT total distance traveled [6] | other results |
| --- | --- | --- | --- | --- | --- | --- | --- | --- | --- |
| COc1ccc2[nH]cc(CCN(C)C)c2c1 [Compound 5-MeO-DMT, 5-methoxy-N,N-dimethyltryptamine] | significantly counteract the reduction in sucrose preference induced by CUMS | increased | increased |  |  |  |  |  | OFT total distance after 5-HT1AR was knocked down (CUMS model mice [2]; CUMS, sh-5-HT1AR versus NC mice): reduced total distance; Potency at 5-HT2AR compared to 5-OH-DMT (5-HT2A receptor; ratio of EC50 values, times more potent): 100 times |
| CN(C)CCc1c[nH]c2ccc(O)cc12 [Compound 5-OH-DMT, 5-hydroxy-N,N-dimethyltryptamine] | significantly counteract the reduction in sucrose preference induced by CUMS | increased | increased | shorter immobility durations | increased sucrose preference | shorter immobility durations | dramatically increased | dramatically increased | EC50 (5-HT1A receptor): 0.1 µM; Immobility time in TST, with addition of WAY100635 [3, 9]: prolonged the immobility time; Sucrose preference, with addition of WAY100635 [4, 9]: this increase was reversed by WAY100635; Loss in potency at A365^6.55F mutant (5-HT1A A365^6.55F mutant): around 1,000 fold; Immobility time in FST, with addition of WAY100635 [5, 9]: prolonged the immobility time; OFT time spent in the center, with administration of WAY100635 [6, 9]: significantly recovered these changes; OFT total distance, with administration of WAY100635 [6, 9]: significantly recovered these changes; Head-twitch response (HTR) (mice [7]): somewhat reduced; Drop in potency with 5-HT2A (5-HT2A receptor; 5-HT2A relative to 5-HT1A, times lower, Fig. 1A): roughly 10 times; Horizontal locomotor activity (HLA), total distance (mice [8]): somewhat reduced |
| C[N+](C)(C)CCc1c[nH]c2ccc([O-])cc12 [Compound 5-OH-TMT, 5-hydroxy-N,N,N-dimethyltryptamine] |  |  |  |  |  |  |  |  | EC50 (5-HT1A receptor; GloSensor cAMP, Gi activation, HEK 293T, Fig. 1A, read-out: EC50 at 5-HT1AR): 10 µM; EC50 (5-HT2A receptor): 10 µM |
| COc1ccccc1N1CCN(CCN(C(=O)C2CCCCC2)c2ccccn2)CC1 [WAY100635, reference compound] |  |  |  | significantly increased immobility time | reduced sucrose preference | significantly increased immobility time | less time spent in center | less total distance traveled |  |

Source: paper PMC12722636, “Structural Pharmacology of Bufotenine Derivatives in Activating the 5-HT1A Receptor for Therapeutic Potential in Depression and Anxiety” (Research, 2025)
